Test results published in article PMC6645336 (ACS Omega, 2018).
Values joined by “and” are separate entries in the source; they are usually repeats but may differ in a detail not shown here. Equal values may be shown once. Read-outs that look alike come from different tables or passages of the source.

How the values were obtained:
[1] = Phase 1: chemical distribution from whole milk into milk fat and skim milk; type: physicochemical, cow; conditions: for distribution into milk fat, percent of total amount added: mean of all doses; for ratio of concentration in milk fat to initial concentration in whole milk / ratio of concentration in skim milk to initial concentration in whole milk: mean of dose means
[2] = Phase 2: chemical distribution from skim milk into curd and whey; type: physicochemical, cow; conditions: for curd/whey concentration ratio: curd as obtained (70% moisture); for concentration ratio of 0% moisture curd to whey: dry matter basis; for Curd Fraction % Dose: phase 2, based on skim milk
[3] = cited from earlier work
[4] = cited from earlier work; for log P / log D (pH 7.4): discussion compounds, Table S4
[5] = cited from earlier work; remark: listed apart in the source
[6] = cited from earlier work; remark: listed apart in the source
[7] = Literature reports of residue distribution in milk products; parameters: species or system cow; conditions: 15% of whole milk in their study, 10% in ours; from ref 18 data

## C[C@]12CC[C@@H]3c4ccc(O)cc4CC[C@H]3[C@@H]1CCC2=O [E1, estrone]
[1]
  distribution into milk fat, percent of total amount added: 74%
  ratio of concentration in milk fat to initial concentration in whole milk: 15.8 and ~16
[2]; mean of doses
  curd/whey concentration ratio: 24
  concentration ratio of 0% moisture curd to whey: 104

## Clc1ccc(-c2cc(Cl)c(Cl)cc2Cl)cc1Cl [PCB-118, 2,3′,4,4′,5-pentachlorobiphenyl]
[1]
  distribution into milk fat, percent of total amount added: > 80%
  ratio of concentration in milk fat to initial concentration in whole milk: 18–20 and 19.5
[2]; mean of doses
  concentration ratio of 0% moisture curd to whey: 136
  chemical retained in the curd fraction, percent of chemical in skim milk: ~80%

## Cl[C@H]1[C@H](Cl)[C@@H](Cl)[C@@H](Cl)[C@H](Cl)[C@H]1Cl [lindane, 1,2,3,4,5,6-hexachlorcyclohexane]
[3]
  concentration in curd relative to whey: approximately 12 times
  reduction by pasteurization: 65–73%
[3]; during 6 months in storage
  losses in Ras cheese: 36.7%
[3]; over 3 days
  losses during refrigeration of yogurt: 1.4–8%
[4]
  log P: 3.99

## Oc1c(Cl)cc2c(c1Cl)Oc1cc(Cl)c(Cl)cc1O2 [2-OH-1378-TCDD, 2-hydroxy-1,3,7,8-tetrachlorodibenzo-p-dioxin]
[1]; 2-OH-1378-TCDD compared with 1278-TCDD
  reduction in milk fat distribution by hydroxylation: ~30%
[1]
  distribution into milk fat, percent of total amount added: 54%
  ratio of concentration in milk fat to initial concentration in whole milk: 11.2
[2]; 2-OH-1378-TCDD vs 1278-TCDD, 3′-MeSO2-PCB-101 vs PCB-118
  greater distribution into whey compared to the unsubstituted analogue: ~30%
[2]; based on whole milk
  percent of whole milk chemical distributed to whey: About 25%
[2]; mean of doses
  concentration ratio of 0% moisture curd to whey: 18
  chemical distributed into whey, percent of chemical in skim milk: 35–60%
  chemical retained in the curd fraction, percent of chemical in skim milk: 40–60%

## COP(=S)(OC)Oc1ccc(SC)c(C)c1 [fenthion]
[3]
  concentration ratio of fat/whole milk: ~5
  percent found in the fat fractions: 80–90%
[4]
  log P: 3.21

## CC[C@H]1OC(=O)[C@H](C)[C@@H](O[C@H]2C[C@@](C)(OC)[C@@H](O)[C@H](C)O2)[C@H](C)[C@@H](O[C@@H]2O[C@H](C)C[C@H](N(C)C)[C@H]2O)[C@](C)(O)C[C@@H](C)C(=O)[C@H](C)[C@@H](O)[C@]1(C)O [ERY, erythromycin]
[5]
  curd/whey concentration ratio: 2.4

## ClC1=C(Cl)C2(Cl)C3C(Cl)C=CC3C1(Cl)C2(Cl)Cl (stereo not shown) [heptachlor]
[3]
  curd/whey concentration ratio: 22
[4]
  log P: 5.46

## CC(=O)Nc1ccc(O)cc1 [TYL, acetaminophen]
[5]
  curd/whey concentration ratio: 1.5

## Clc1cc2c(cc1Cl)Oc1c(ccc(Cl)c1Cl)O2 [1278-TCDD, 1,2,7,8-tetrachlorodibenzo-p-dioxin]
[1]
  distribution into milk fat, percent of total amount added: > 80%
  ratio of concentration in milk fat to initial concentration in whole milk: 18–20 and 18.7
[2]; mean of doses
  concentration ratio of 0% moisture curd to whey: 115
  chemical retained in the curd fraction, percent of chemical in skim milk: ~80%

## CC(C)(c1ccc(O)cc1)c1ccc(O)cc1 [BPA, bisphenol A]
[1]
  distribution into milk fat, percent of total amount added: 39%
[2]; mean of doses
  curd/whey concentration ratio: 29
  concentration ratio of 0% moisture curd to whey: 111

## Brc1ccc(Oc2cc(Br)c(Br)cc2Br)c(Br)c1 [BDE-99, 2,2′,4,4′,5-pentabromodiphenyl ether]
[1]
  distribution into milk fat, percent of total amount added: > 80%
  ratio of concentration in milk fat to initial concentration in whole milk: 18–20
[2]; mean of doses
  concentration ratio of 0% moisture curd to whey: 327
  chemical retained in the curd fraction, percent of chemical in skim milk: ~80%
[2]; nominal 20 nM in whole milk
  Curd Fraction % Dose: 73%
[2]; nominal 200 nM in whole milk
  Curd Fraction % Dose: 80%
[2]; nominal 2000 nM in whole milk
  Curd Fraction % Dose: 92%

## Clc1cc2c(cc1Cl)Oc1cc(Cl)c(Cl)cc1O2 [2,3,7,8-TCDD]
[3]; lactating dairy cows, medium heavy cream
  residues in cream exceeding those in milk, factor: about 10

## ivermectin [IVR]
[6]
  milk fat/whole milk concentration ratio: 18.4
[4]; Table S1, value cited in the earlier paper
  log P, parenthesis value: 6.61

## CNP(=O)(OC)Oc1ccc(C(C)(C)C)cc1Cl (stereo not shown) [cruformate]
[7]
  concentration into cream adjusted to reflect lipid mass yield: ~7.6 fold
[3]; fed to cows
  concentration into cream relative to whole milk: fivefold
[3]; starting milk concentration 0.07 ppm
  curd/whey concentration ratio: 22
[3]; starting milk concentration 0.16 ppm
  curd/whey concentration ratio: 31
[4]
  log P: 3.33

## ClC1=C(Cl)C2(Cl)C3C4CC(C5OC45)C3C1(Cl)C2(Cl)Cl (stereo not shown) [endrin]
[3]
  curd/whey concentration ratio: 91
[4]
  log P: 4.9
  log D (pH 7.4): 4.9

## CN(C)[C@@H]1C(O)=C(C(N)=O)C(=O)[C@@]2(O)C(O)=C3C(=O)c4c(O)cccc4[C@@](C)(O)[C@H]3[C@H](O)[C@@H]12 [OTET, oxytetracycline]
[5]
  curd/whey concentration ratio: 1.4

## CC1(C)S[C@@H]2[C@H](NC(=O)Cc3ccccc3)C(=O)N2[C@H]1C(=O)O [PENG, penicillin G]
[5]
  curd/whey concentration ratio: 1.2

## O=C(Nc1ccc(Cl)cc1)Nc1ccc(Cl)c(Cl)c1 [TCC, triclocarban]
[1]
  distribution into milk fat, percent of total amount added: > 80% and 85%
  ratio of concentration in milk fat to initial concentration in whole milk: 18–20 and 17.6
[2]; mean of doses
  concentration ratio of 0% moisture curd to whey: 46
  chemical distributed into whey, percent of chemical in skim milk: 35–60%
  chemical retained in the curd fraction, percent of chemical in skim milk: 40–60%
  percent of skim milk chemical in 0% moisture curd: 57%

## Clc1ccc(C(c2ccc(Cl)cc2)C(Cl)(Cl)Cl)cc1 [DDT, dichlorodiphenyltrichloroethane]
[3]; during the manufacturing of cheese
  starting DDT degraded to DDE and DDD: 27–53%
[3]; milk of dairy cows fed DDT
  concentration in Swiss-type cheese relative to original whole milk: ~8 times
[3]; pasteurized milk
  cream/whole milk ratio: 12
[3]; raw milk
  cream/whole milk ratio: 9.0
[4]
  log P: 5.92
  log D (pH 7.4): 6.22

## O=C(O)CNCP(=O)(O)O [GLY, glyphosate]
[1]
  distribution into milk fat, percent of total amount added: 0.95%
  ratio of concentration in milk fat to initial concentration in whole milk: 0.2
  ratio of concentration in skim milk to initial concentration in whole milk: ~1
[2]; mean of doses
  curd/whey concentration ratio: 1.4
  concentration ratio of 0% moisture curd to whey: 2.5
  chemical retained in the curd fraction, percent of chemical in skim milk: approximately 16.5%

## O=[N+]([O-])NC1=NCCN1Cc1ccc(Cl)nc1 [IMI, imidacloprid]
[1]
  distribution into milk fat, percent of total amount added: 2.5%
  ratio of concentration in skim milk to initial concentration in whole milk: ~1
[2]; mean of doses
  curd/whey concentration ratio: 2.4
  concentration ratio of 0% moisture curd to whey: 9.2
  chemical retained in the curd fraction, percent of chemical in skim milk: 23.7%

## CS(=O)(=O)c1ccc([C@@H](O)[C@@H](CO)NC(=O)C(Cl)Cl)cc1 [TAP, thiamphenicol]
[5]
  curd/whey concentration ratio: 1.3
